Results published in the NIST ThermoML archive (doi:10.1021/acs.jced.6b00455).
Numbers after ± are expanded uncertainties.

Assay: mn = molality of the nth substance listed, in mol/kg
Conditions: 101 kPa, Liquid, Alternating current cell with electrodes

Compound C[N+](C)(C)CCO.O=C([O-])C(F)(F)C(F)(F)C(F)(F)C(F)(F)F [(2-hydroxyethyl)trimethylammonium perfluoropentanoate] + O has an electrical conductivity (293.15 K, m1 = 0.000529) of 0.0033 ± 0.0002 S/m, an electrical conductivity (293.15 K, m1 = 0.001164) of 0.0074 ± 0.0004 S/m and an electrical conductivity (293.15 K, m1 = 0.001886) of 0.012 ± 0.0007 S/m. It also gave an electrical conductivity (293.15 K, m1 = 0.002281) of 0.0144 ± 0.0009 S/m, an electrical conductivity (293.15 K, m1 = 0.002766) of 0.0174 ± 0.001 S/m and an electrical conductivity (293.15 K, m1 = 0.003311) of 0.0207 ± 0.0012 S/m. It also gave an electrical conductivity (293.15 K, m1 = 0.003805) of 0.0236 ± 0.0014 S/m, an electrical conductivity (293.15 K, m1 = 0.004377) of 0.0271 ± 0.0016 S/m and an electrical conductivity (293.15 K, m1 = 0.004908) of 0.0302 ± 0.0018 S/m. It also gave an electrical conductivity (293.15 K, m1 = 0.005409) of 0.033 ± 0.002 S/m, an electrical conductivity (293.15 K, m1 = 0.005979) of 0.0364 ± 0.0022 S/m and an electrical conductivity (293.15 K, m1 = 0.006697) of 0.0404 ± 0.0024 S/m. The electrical conductivity (293.15 K, m1 = 0.007467) was 0.0447 ± 0.0027 S/m, the electrical conductivity (293.15 K, m1 = 0.008082) was 0.0481 ± 0.0029 S/m and the electrical conductivity (293.15 K, m1 = 0.00858) was 0.0508 ± 0.003 S/m. The electrical conductivity (293.15 K, m1 = 0.009905) was 0.058 ± 0.0035 S/m, the electrical conductivity (293.15 K, m1 = 0.01142) was 0.066 ± 0.004 S/m and the electrical conductivity (293.15 K, m1 = 0.0124) was 0.0711 ± 0.0043 S/m. For the same compound, the electrical conductivity (293.15 K, m1 = 0.01324) was 0.0753 ± 0.0045 S/m, the electrical conductivity (293.15 K, m1 = 0.01399) was 0.0792 ± 0.0048 S/m and the electrical conductivity (293.15 K, m1 = 0.01513) was 0.085 ± 0.0051 S/m. It also gave an electrical conductivity (293.15 K, m1 = 0.01598) of 0.0891 ± 0.0053 S/m, an electrical conductivity (293.15 K, m1 = 0.01695) of 0.0936 ± 0.0056 S/m and an electrical conductivity (293.15 K, m1 = 0.01789) of 0.098 ± 0.0059 S/m. For the same compound, the electrical conductivity (293.15 K, m1 = 0.01884) was 0.102 ± 0.0062 S/m, the electrical conductivity (293.15 K, m1 = 0.01994) was 0.108 ± 0.0065 S/m and the electrical conductivity (293.15 K, m1 = 0.02076) was 0.112 ± 0.0067 S/m. It also gave an electrical conductivity (293.15 K, m1 = 0.02179) of 0.116 ± 0.007 S/m, an electrical conductivity (293.15 K, m1 = 0.02264) of 0.12 ± 0.0072 S/m and an electrical conductivity (293.15 K, m1 = 0.02348) of 0.123 ± 0.0074 S/m. For the same compound, the electrical conductivity (293.15 K, m1 = 0.0245) was 0.128 ± 0.0077 S/m, the electrical conductivity (298.15 K, m1 = 0.00173) was 0.0127 ± 0.0008 S/m and the electrical conductivity (298.15 K, m1 = 0.003076) was 0.0222 ± 0.0013 S/m. It also gave an electrical conductivity (298.15 K, m1 = 0.004761) of 0.0337 ± 0.002 S/m, an electrical conductivity (298.15 K, m1 = 0.006222) of 0.0434 ± 0.0026 S/m and an electrical conductivity (298.15 K, m1 = 0.007398) of 0.0509 ± 0.0031 S/m. For the same compound, the electrical conductivity (298.15 K, m1 = 0.008599) was 0.0589 ± 0.0035 S/m, the electrical conductivity (298.15 K, m1 = 0.01005) was 0.0687 ± 0.0041 S/m and the electrical conductivity (298.15 K, m1 = 0.01198) was 0.0799 ± 0.0048 S/m. For the same compound, the electrical conductivity (298.15 K, m1 = 0.01368) was 0.0892 ± 0.0054 S/m, the electrical conductivity (298.15 K, m1 = 0.01543) was 0.0996 ± 0.006 S/m and the electrical conductivity (298.15 K, m1 = 0.01692) was 0.108 ± 0.0065 S/m. The electrical conductivity (298.15 K, m1 = 0.0184) was 0.116 ± 0.007 S/m, the electrical conductivity (298.15 K, m1 = 0.02111) was 0.131 ± 0.0079 S/m and the electrical conductivity (298.15 K, m1 = 0.02244) was 0.138 ± 0.0083 S/m. For the same compound, the electrical conductivity (298.15 K, m1 = 0.02415) was 0.148 ± 0.0089 S/m, the electrical conductivity (298.15 K, m1 = 0.02609) was 0.158 ± 0.009 S/m and the electrical conductivity (298.15 K, m1 = 0.02818) was 0.17 ± 0.01 S/m. For the same compound, the electrical conductivity (298.15 K, m1 = 0.031) was 0.183 ± 0.011 S/m, the electrical conductivity (298.15 K, m1 = 0.03389) was 0.198 ± 0.012 S/m and the electrical conductivity (298.15 K, m1 = 0.03746) was 0.215 ± 0.013 S/m. For the same compound, the electrical conductivity (298.15 K, m1 = 0.04011) was 0.228 ± 0.014 S/m, the electrical conductivity (298.15 K, m1 = 0.04312) was 0.245 ± 0.015 S/m and the electrical conductivity (303.15 K, m1 = 0.000602) was 0.005 ± 0.0003 S/m. For the same compound, the electrical conductivity (303.15 K, m1 = 0.001118) was 0.0092 ± 0.0006 S/m, the electrical conductivity (303.15 K, m1 = 0.001883) was 0.0153 ± 0.0009 S/m and the electrical conductivity (303.15 K, m1 = 0.002669) was 0.0214 ± 0.0013 S/m. For the same compound, the electrical conductivity (303.15 K, m1 = 0.002939) was 0.0235 ± 0.0014 S/m, the electrical conductivity (303.15 K, m1 = 0.003765) was 0.0297 ± 0.0018 S/m and the electrical conductivity (303.15 K, m1 = 0.004158) was 0.0325 ± 0.002 S/m. It also gave an electrical conductivity (303.15 K, m1 = 0.004947) of 0.0388 ± 0.0023 S/m, an electrical conductivity (303.15 K, m1 = 0.005615) of 0.0446 ± 0.0027 S/m and an electrical conductivity (303.15 K, m1 = 0.006164) of 0.0494 ± 0.003 S/m. For the same compound, the electrical conductivity (303.15 K, m1 = 0.006758) was 0.0518 ± 0.0031 S/m, the electrical conductivity (303.15 K, m1 = 0.007514) was 0.0567 ± 0.0034 S/m and the electrical conductivity (303.15 K, m1 = 0.008082) was 0.0606 ± 0.0036 S/m. It also gave an electrical conductivity (303.15 K, m1 = 0.008631) of 0.0643 ± 0.0039 S/m, an electrical conductivity (303.15 K, m1 = 0.009197) of 0.0673 ± 0.004 S/m and an electrical conductivity (303.15 K, m1 = 0.01012) of 0.0743 ± 0.0045 S/m. The electrical conductivity (303.15 K, m1 = 0.01148) was 0.0832 ± 0.005 S/m, the electrical conductivity (303.15 K, m1 = 0.01208) was 0.0872 ± 0.0052 S/m and the electrical conductivity (303.15 K, m1 = 0.0126) was 0.0906 ± 0.0054 S/m. For the same compound, the electrical conductivity (303.15 K, m1 = 0.0131) was 0.0936 ± 0.0056 S/m, the electrical conductivity (303.15 K, m1 = 0.01373) was 0.0973 ± 0.0058 S/m and the electrical conductivity (303.15 K, m1 = 0.01442) was 0.102 ± 0.0061 S/m. It also gave an electrical conductivity (303.15 K, m1 = 0.01495) of 0.105 ± 0.0063 S/m, an electrical conductivity (303.15 K, m1 = 0.01641) of 0.114 ± 0.0069 S/m and an electrical conductivity (303.15 K, m1 = 0.01705) of 0.118 ± 0.0071 S/m. The electrical conductivity (303.15 K, m1 = 0.01772) was 0.121 ± 0.0073 S/m, the electrical conductivity (303.15 K, m1 = 0.01824) was 0.124 ± 0.0075 S/m and the electrical conductivity (303.15 K, m1 = 0.01885) was 0.128 ± 0.0077 S/m. The electrical conductivity (303.15 K, m1 = 0.01941) was 0.131 ± 0.0079 S/m and the electrical conductivity (303.15 K, m1 = 0.01993) was 0.134 ± 0.008 S/m.
